The source of these data is patent publication US7605156B2, “Methods for the use of inhibitors of cytosolic phospholipase A2” (Wyeth, priority 2001, dated 2009).

The target in this assay is T1, cPLA2 (Homo sapiens, UniProt P47712).
T1 sequence (P47712 1-749): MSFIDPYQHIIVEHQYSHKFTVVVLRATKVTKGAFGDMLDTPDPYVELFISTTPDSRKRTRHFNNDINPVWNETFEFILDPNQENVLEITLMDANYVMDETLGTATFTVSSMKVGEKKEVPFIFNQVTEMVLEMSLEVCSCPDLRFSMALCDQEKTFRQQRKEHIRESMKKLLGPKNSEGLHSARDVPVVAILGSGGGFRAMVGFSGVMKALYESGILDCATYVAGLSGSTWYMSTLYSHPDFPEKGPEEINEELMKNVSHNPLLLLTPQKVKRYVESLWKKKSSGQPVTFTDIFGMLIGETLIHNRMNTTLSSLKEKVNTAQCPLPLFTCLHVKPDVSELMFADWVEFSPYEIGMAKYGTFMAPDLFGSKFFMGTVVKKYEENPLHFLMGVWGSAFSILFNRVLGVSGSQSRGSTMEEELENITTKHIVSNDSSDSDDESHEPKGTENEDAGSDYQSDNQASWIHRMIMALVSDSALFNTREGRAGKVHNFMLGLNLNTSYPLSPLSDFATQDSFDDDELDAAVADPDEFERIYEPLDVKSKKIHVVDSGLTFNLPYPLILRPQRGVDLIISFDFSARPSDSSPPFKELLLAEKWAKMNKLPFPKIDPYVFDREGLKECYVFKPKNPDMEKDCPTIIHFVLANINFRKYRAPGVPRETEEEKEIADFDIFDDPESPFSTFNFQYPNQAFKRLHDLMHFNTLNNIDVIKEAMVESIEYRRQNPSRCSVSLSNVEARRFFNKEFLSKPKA
The assay is described as follows: Coumarine assay (hydrolysis of 7-hydroxycoumarinyl 6-heptenoate). The conditions noted are these: 60 μM 7-hydroxycoumarinyl 6-heptenoate, pH 7.5; read-out: Coumarin IC50. In kind it is biochemical.

As usually defined, the pIC50 is the negative decadic logarithm of the IC50, by convention in mol/L.

pIC50: −log10 of the molar value.

Turning to `O=C(O)c1ccc(OCCc2c(CCNS(=O)(=O)c3ccc(C(F)(F)F)cc3)n(C(c3ccccc3)c3ccccc3)c3ccc(Cl)cc23)cc1` [Example 229, 4-(2-{1-benzhydryl-5-chloro-2-[2-({[4-(trifluoromethyl)phenyl]sulfonyl}amino)ethyl]-1H-indol-3-yl}ethoxy)benzoic acid], the pIC50 was 6.30.
For the compound `O=C(O)c1ccc(OCCc2c(CCNS(=O)(=O)c3cccc(C(F)(F)F)c3)n(C(c3ccccc3)c3ccccc3)c3ccc(Cl)cc23)cc1` [Example 219, 4-(2-{1-benzhydryl-5-chloro-2-[2-({[3-(trifluoromethyl)phenyl]sulfonyl}amino)ethyl]-1H-indol-3-yl}ethoxy)benzoic acid], the pIC50 was 6.40.
Take `O=C(O)c1ccc(CCCc2c(CCNS(=O)(=O)c3c(F)cc(F)cc3F)n(C(c3ccccc3)c3ccccc3)c3ccc(Cl)cc23)cc1` [Example 199, 4-(3-{1-Benzhydryl-5-chloro-2-[2-(2,4,6-trifluoro-benzenesulfonylamino)-ethyl]-1H-indol-3-yl}-propyl)-benzoic acid]: the pIC50 was 6.35.
Regarding `O=C(O)c1cccc(OCCc2c(CCNS(=O)(=O)Cc3ccccc3)n(C(c3ccccc3)c3ccccc3)c3ccc(Cl)cc23)c1` [Example 283], the negative logarithm of the IC50 (pIC50) is 6.30.
Turning to `O=C(O)c1ccc(CCCc2c(CCNS(=O)(=O)C3CC3)n(C(c3ccccc3)c3ccccc3)c3ccc(Cl)cc23)cc1` [Example 280, 4-[3-(1-benzhydryl-5-chloro-2-{2-[(cyclopropylsulfonyl)amino]-ethyl}-1H-indol-3-yl)propyl]benzoic acid], the negative logarithm of the IC50 (pIC50) was 6.46.
For `CC(C)Oc1ccccc1S(=O)(=O)NCCc1c(CCOc2ccc(C(=O)O)cc2)c2cc(Cl)ccc2n1C(c1ccccc1)c1ccccc1` [Example 185, 4-(2-{1-Benzhydryl-5-chloro-2-[2-(2-isopropoxy-benzenesulfonylamino)-ethyl]-1H-indol-3-yl}-ethoxy)benzoic acid], the pIC50 is 6.77.
Turning to `Cc1nc(-c2ccc(S(=O)(=O)NCCc3c(CCCc4ccc(C(=O)O)cc4)c4cc(Cl)ccc4n3C(c3ccccc3)c3ccccc3)s2)cs1` [Example 176, 4-(3-{1-benzhydryl-5-chloro-2-[2-({[5-(2-methyl-1,3-thiazol-4-yl)thien-2-yl]sulfonyl}amino)ethyl]-1H-indol-3-yl}propyl)benzoic acid], the negative-log IC50 (pIC50) is 6.40.
In the case of `O=C(O)c1ccc(S(=O)(=O)CCc2c(CCNS(=O)(=O)c3ccccc3Cl)n(C(c3ccccc3)c3ccccc3)c3ccc(Cl)cc23)cc1` [Example 256, 4-({2-[1-benzhydryl-5-chloro-2-(2-{[(2-chlorophenyl)sulfonyl]amino}ethyl)-1H-indol-3-yl]ethyl}sulfonyl)benzoic acid], the pIC50 is 6.22.
As to `O=C(O)c1ccc(OCCc2c(CCNS(=O)(=O)CCN3C[C@@H]4C[C@H]3CO4)n(C(c3ccccc3)c3ccccc3)c3ccc(Cl)cc23)cc1` [Example 251], the pIC50 is 5.82.
For `O=C(O)c1ccc(CCCc2c(CCNS(=O)(=O)c3c(Cl)cccc3Cl)n(C(c3ccccc3)c3ccccc3)c3ccc(Cl)cc23)cc1` [Example 153, 4-{3-[1-benzhydryl-5-chloro-2-(2-{[(2,6-dichlorophenyl)sulfonyl]amino}ethyl)-1H-indol-3-yl]propyl}benzoic acid] the value was 6.80.
In the case of `Cc1nc(S(=O)(=O)NCCc2c(CCCc3ccc(C(=O)O)cc3)c3cc(Cl)ccc3n2C(c2ccccc2)c2ccccc2)cn1C` [Example 257, 4-{3-[1-benzhydryl-5-chloro-2-(2-{[(1,2-dimethyl-1H-imidazol-4-yl)sulfonyl]amino}ethyl)-1H-indol-3-yl]propyl}benzoic acid], the pIC50 is 6.30.
For the compound `COc1ccc(S(=O)(=O)NCCc2c(CCOc3ccc(C(=O)O)cc3)c3cc(Cl)ccc3n2C(c2ccccc2)c2ccccc2)c([N+](=O)[O-])c1` [Example 197, 4-(2-{1-Benzhydryl-5-chloro-2-[2-(4-methoxy-2-nitro-benzenesulfonylamino)-ethyl]-1H-indol-3-yl}-ethoxy)-benzoic acid], the pIC50 was 6.40.
